Experimental data published in ChEMBL document CHEMBL1146569, “The pterocellins, novel bioactive alkaloids from the marine bryozoan Pterocella vesiculosa” (J Nat Prod, 2003).

Columns and labels:
Assay type in all cases: functional
HCC 2998 = experiment: Growth inhibition of human HCC2998 cells
M14 = experiment: Growth inhibition of human M14 cells
SNB-19 = experiment: Growth inhibition of human SNB19 cells
SK-MEL-5 = experiment: Growth inhibition of human SK-MEL-5 cells
EKVX = experiment: Growth inhibition of human EKVX cells
NCI-H460 = experiment: Growth inhibition of human NCI-H460 cells
Candida albicans = experiment: Antimicrobial activity against Candida albicans assessed per disk
TK-10 = experiment: Growth inhibition of human TK10 cells
LOX IMVI = experiment: Growth inhibition of human LOXIMVI cells
UACC-257 = experiment: Growth inhibition of human UACC257 cells
CAKI-1 = experiment: Growth inhibition of human Caki1 cells
SF-268 = experiment: Growth inhibition of human SF268 cells
MCF7 = experiment: Growth inhibition of human MCF7 cells
RXF 393 = experiment: Growth inhibition of human RXF393 cells
SF-539 = experiment: Growth inhibition of human SF539 cells
ACHN = experiment: Growth inhibition of human ACHN cells
CCRF-CEM = experiment: Growth inhibition of human CCRF-CEM cells
OVCAR-4 = experiment: Growth inhibition of human OVCAR4 cells
IGROV-1 = experiment: Growth inhibition of human IGROV1 cells
Amorphotheca resinae = experiment: Antimicrobial activity against Cladosporium resinae assessed per disk
[1] = Growth inhibition of human […] cells
SW-620 = experiment: Growth inhibition of human SW620 cells
A549 = experiment: Growth inhibition of human A549 cells
UACC-62 = experiment: Growth inhibition of human UACC62 cells
MDA-MB-231 = experiment: Growth inhibition of human MDA-MB-231 cells
COLO 205 = experiment: Growth inhibition of human COLO205 cells
SF-295 = experiment: Growth inhibition of human SF295 cells
SNB-75 = experiment: Growth inhibition of human SNB75 cells
K562 = experiment: Growth inhibition of human K562 cells
SK-MEL-2 = experiment: Growth inhibition of human SK-MEL-2 cells
DU-145 = experiment: Growth inhibition of human DU145 cells
PC-3 = experiment: Growth inhibition of human PC3 cells
Pseudomonas aeruginosa = experiment: Antimicrobial activity against Pseudomonas aeruginosa assessed per disk
HCT-15 = experiment: Growth inhibition of human HCT15 cells
HCT-116 = experiment: Growth inhibition of human HCT116 cells
OVCAR-5 = experiment: Growth inhibition of human OVCAR5 cells
MOLT-4 = experiment: Growth inhibition of human MOLT4 cells
786-0 = experiment: Growth inhibition of human 786-0 cells
SK-OV-3 = experiment: Growth inhibition of human SKOV3 cells
HOP-62 = experiment: Growth inhibition of human HOP62 cells
SN12C = experiment: Growth inhibition of human SN12C cells
HOP-92 = experiment: Growth inhibition of human HOP92 cells
NCI/ADR-RES = experiment: Growth inhibition of human NCI/ADR-RES cells
NCI-H226 = experiment: Growth inhibition of human NCI-H226 cells
SK-MEL-28 = experiment: Growth inhibition of human SK-MEL-28 cells
[2] = read-out: LC50 (the source's name)

COc1cn2c(cc1=O)C(=O)c1ccnc(Cc3ccccc3)c1-2 [PTEROCELLIN B] gave a GI50 (HCC 2998) of 400 nM, an LC50 (concentration killing 50% of cells) (HCC 2998) of 3200 nM and a TGI (HCC 2998) of 1000 nM. It also gave a GI50 (M14) of 100 nM, an LC50 (concentration killing 50% of cells) (M14) of 500 nM and a TGI (M14) of 200 nM. It also gave a GI50 (SNB-19) of 1600 nM, a TGI (SNB-19) of 3300 nM and a CC50 (SNB-19; [2]) of 7000 nM. It also gave a GI50 (SK-MEL-5) of 100 nM, a TGI (SK-MEL-5) of 300 nM and a CC50 (SK-MEL-5; [2]) of 500 nM. The GI50 (EKVX) was 1400 nM, the TGI (EKVX) was 3800 nM and the CC50 (EKVX; [2]) was 10700 nM. For the same molecule, the GI50 (NCI-H460) was 200 nM, the LC50 (concentration causing 50% cell kill) (NCI-H460) was 5500 nM and the TGI (NCI-H460) was 800 nM. It also gave an MIC (Candida albicans) greater than 60 µg, a GI50 (TK-10) of 1500 nM and a TGI (TK-10) of 2900 nM. The CC50 (TK-10; [2]) was 5600 nM, the GI50 (LOX IMVI) was 400 nM and the LC50 (LOX IMVI) was 13200 nM. For the same molecule, the TGI (LOX IMVI) was 2400 nM, the GI50 (UACC-257) was 200 nM and the TGI (UACC-257) was 700 nM. The CC50 (UACC-257; [2]) was 2900 nM, the GI50 (CAKI-1) was 1500 nM and the TGI (CAKI-1) was 3300 nM. For the same molecule, the CC50 (CAKI-1; [2]) was 7400 nM, the GI50 (SF-268) was 1700 nM and the LC50 (concentration killing 50% of cells) (SF-268) was 21500 nM. It also gave a TGI (SF-268) of 5500 nM, a GI50 (MCF7) of 1000 nM and a TGI (MCF7) of 3300 nM. For the same molecule, the CC50 (MCF7; [2]) was greater than 100000 nM, the GI50 (RXF 393) was 2400 nM and the LC50 (RXF 393) was 45200 nM. The TGI (RXF 393) was 6900 nM, the GI50 (SF-539) was 1100 nM and the TGI (SF-539) was 2700 nM. The CC50 (SF-539; [2]) was 6400 nM, the GI50 (ACHN) was 1100 nM and the TGI (ACHN) was 2900 nM. It also gave a CC50 (ACHN; [2]) of 7800 nM, a GI50 (CCRF-CEM) of 1700 nM and a TGI (CCRF-CEM) of 5200 nM. For the same molecule, the CC50 (CCRF-CEM; [2]) was greater than 100000 nM, the GI50 (OVCAR-4) was 1300 nM and the LC50 (OVCAR-4) was 5600 nM. It also gave a TGI (OVCAR-4) of 2700 nM, a GI50 (IGROV-1) of 1000 nM and a TGI (IGROV-1) of 2500 nM. It also gave a CC50 (IGROV-1; [2]) of 6000 nM, an MIC (Amorphotheca resinae) greater than 60 µg and a GI50 [1] of 1500 nM. The TGI [1] was 4900 nM, the CC50 [1, 2] was greater than 100000 nM and the GI50 (SW-620) was 700 nM. The LC50 (concentration killing 50% of cells) (SW-620) was 4900 nM, the TGI (SW-620) was 2000 nM and the GI50 (A549) was 200 nM. The LC50 (50% cell kill concentration) (A549) was 1800 nM, the TGI (A549) was 500 nM and the GI50 (UACC-62) was 200 nM. It also gave an LC50 (50% cell kill) (UACC-62) of 4100 nM, a TGI (UACC-62) of 600 nM and a GI50 (MDA-MB-231) of 3300 nM. For the same molecule, the TGI (MDA-MB-231) was 29600 nM, the CC50 (MDA-MB-231; [2]) was greater than 100000 nM and the GI50 (COLO 205) was 700 nM. For the same molecule, the TGI (COLO 205) was 2300 nM, the CC50 (COLO 205; [2]) was 6100 nM and the GI50 (SF-295) was 300 nM. It also gave an LC50 (concentration killing 50% of starting cells) (SF-295) of 4000 nM, a TGI (SF-295) of 1600 nM and a GI50 (SNB-75) of 200 nM. It also gave a TGI (SNB-75) of 900 nM, a CC50 (SNB-75; [2]) of 5300 nM and a GI50 (K562) of 1200 nM. It also gave an LC50 (concentration killing 50% of cells) (K562) of 4900 nM, a TGI (K562) of 2400 nM and a GI50 (SK-MEL-2) of 700 nM. It also gave a TGI (SK-MEL-2) of 2200 nM, a CC50 (SK-MEL-2; [2]) of 5300 nM and a GI50 (DU-145) of 200 nM. It also gave a TGI (DU-145) of 300 nM, a CC50 (DU-145; [2]) of 600 nM and a GI50 (PC-3) of 1600 nM. For the same molecule, the LC50 (concentration killing 50% of cells) (PC-3) was 26600 nM, the TGI (PC-3) was 5900 nM and the MIC (Pseudomonas aeruginosa) was greater than 60 µg. For the same molecule, the GI50 (HCT-15) was 500 nM, the TGI (HCT-15) was 1800 nM and the CC50 (HCT-15; [2]) was 4900 nM. It also gave a GI50 (HCT-116) of 500 nM, an LC50 (HCT-116) of 4000 nM and a TGI (HCT-116) of 1600 nM. It also gave a GI50 (OVCAR-5) of 1200 nM, a TGI (OVCAR-5) of 2400 nM and a CC50 (OVCAR-5; [2]) of 4900 nM. It also gave a GI50 (MOLT-4) of 1400 nM, an LC50 (concentration killing 50% of cells) (MOLT-4) of 5600 nM and a TGI (MOLT-4) of 2900 nM. For the same molecule, the GI50 (786-0) was 1800 nM, the LC50 (concentration killing 50% of cells) (786-0) was 17900 nM and the TGI (786-0) was 5000 nM. For the same molecule, the GI50 (SK-OV-3) was 2700 nM, the TGI (SK-OV-3) was 13800 nM and the CC50 (SK-OV-3; [2]) was 47100 nM. For the same molecule, the GI50 (HOP-62) was 1000 nM, the TGI (HOP-62) was 2100 nM and the CC50 (HOP-62; [2]) was 4600 nM. The GI50 (SN12C) was 500 nM, the LC50 (SN12C) was 5500 nM and the TGI (SN12C) was 1800 nM. For the same molecule, the GI50 (HOP-92) was 1700 nM, the TGI (HOP-92) was 3800 nM and the CC50 (HOP-92; [2]) was 8800 nM. It also gave a GI50 (NCI/ADR-RES) of 1400 nM, a TGI (NCI/ADR-RES) of 3900 nM and a CC50 (NCI/ADR-RES; [2]) of 15300 nM. It also gave a GI50 (NCI-H226) of 1400 nM, a TGI (NCI-H226) of 3500 nM and a CC50 (NCI-H226; [2]) of 8400 nM. It also gave a GI50 (SK-MEL-28) of 1000 nM, a TGI (SK-MEL-28) of 2600 nM and a CC50 (SK-MEL-28; [2]) of 6700 nM.
